Measured values: patent US20240173289A1, “USE OF OXYMETHYL-MODIFIED DERIVATIVE OF QUERCETIN IN PREPARATION OF DRUG FOR INHIBITING TUMOR CELL PROLIFERATION” (ZHEJIANG UNIVERSITY, priority 2021, published 2024)

Tests used:
Format in all cases: cell-based
HepG2 cells = assay: scratch test, metastasis capacity; settings: 1 mg/L, after 1 d (24 h) of incubation
Protocol: HepG2 cells with a cell density of 5×10^5/mL were plated on a 6-well plate (1 mL per well), added to a DMEM medium containing 10% fetal calf serum, and cultured overnight to form a monolayer of cells. A horizontal scratch was scratched on the monolayer of cells with a pipette tip of 200 μL, washed with PBS 3 times, added into a DMEM medium containing 10% fetal bovine serum, and then added with 1 mg/L of a quercetin 3,3′-dimethyl ether solution, while DMSO was used as a solvent control, and then incubated for 24 h.

[1] = test system: cervical cancer Hela cells; assay: scratch closure test; settings: 2 mg/L, 24 h
Protocol: (§1) Cells with a certain density (6×10^5 cells per mL for AGS, T47D, Caco2, BCPAP, GES, HUVEC; 5×10^5 cells per mL for HepG2, MDA-MB-231, BGC-823, A549, PC3, L02; 3×10^5 cells per mL for 143B, HOS, U2, SGC-7901, Hela, BV-2; and 1.8×10^6 cells per mL for WI-38) were spread on a 6-well plate (1 mL per well), added with a DMEM medium containing 10% fetal calf serum, and cultured overnight to form a monolayer of cells. A horizontal scratch was scratched on the monolayer of cells with a pipette tip of 200 μL, washed with PBS 3 times, added into a DMEM medium containing 10% fetal bovine serum, and then added with corresponding dosages of a quercetin 3,3′-dimethyl ether solution (the dosage of osteosarcoma cells was 143B: 4 mg/L, HOS: 4 mg/L, U2: 10 mg/L; the dosage of breast cancer cells was MDA-MB-231: 2 mg/L, T47D: 3 mg/L; the dosage of gastric cancer cells was SGC7901: 6 mg/L, BGC823: 5 mg/L, AGS: 3 mg/L; the dosage of cervical cancer Hela cells was 2 mg/L; the dosage of lung cancer cell A549 was 3 mg/L; the dosage of intestinal cancer cells Caco2 was 4 mg/L; the dosage of mouse glioma BV2 was 4 mg/L; the dosage of human prostate cancer cells PC3 was 6 mg/L; and the dosage of human thyroid cancer cells BCPAP was 2 mg/L), while DMSO was used as a solvent control, and then incubated for 24 h. A scratch width and a measurement width were determined under a microscope, and a scratch closure ratio was calculated as follows: scratch closure ratio=(scratch width−measurement width)/scratch width×100%. Scratch inhibition ratio=(scratch closure ratio of control group−scratch closure ratio of treatment group)/scratch closure ratio of control group×100%.

[2] = test system: breast cancer cells MDA-MB-231; assay: scratch closure test; settings: 2 mg/L, 24 h
Protocol: as §1

[3] = test system: human prostate cancer cells PC3; assay: scratch closure test; settings: 6 mg/L, 24 h
Protocol: as §1

mouse glioma BV2 = assay: scratch closure test; settings: 4 mg/L, 24 h
Protocol: as §1

[4] = test system: gastric cancer cells BGC-823; assay: scratch closure test; settings: Homo sapiens, BGC823, 5 mg/L, 24 h, versus control group, read-out: inhibition rate of scratch closure
Protocol: as §1

osteosarcoma cells U2 = assay: scratch closure test; settings: 10 mg/L, 24 h
Protocol: as §1

lung cancer cell A549 = assay: scratch closure test; settings: Homo sapiens, 3 mg/L, 24 h, versus control group, read-out: inhibition rate of scratch closure
Protocol: as §1

breast cancer cells T47D = assay: scratch closure test; settings: 3 mg/L, 24 h
Protocol: as §1

[5] = test system: gastric cancer cells SGC-7901; assay: scratch closure test; settings: 24 h
Protocol: as §1

[6] = test system: intestinal cancer cells Caco2; assay: scratch closure test; settings: 24 h
Protocol: as §1

[7] = test system: human thyroid cancer cells BCPAP; assay: scratch closure test; settings: 2 mg/L, 24 h
Protocol: as §1

osteosarcoma cells HOS = assay: scratch closure test; settings: 4 mg/L, 24 h, versus control group, read-out: inhibition rate of scratch closure
Protocol: as §1

[8] = test system: human normal liver cell line L02; assay: in vitro proliferation inhibition on normal cells (CCK-8); settings: 48 h, read-out: half-inhibitory concentration
Description: (§2) Osteosarcoma cell line 143B, HOS, and U2, liver cancer cell line HepG2, breast cancer cell line MDA-MB-231 and T47D, gastric cancer cell line AGS, BGC-823, and SGC-7901, cervical cancer cells Hela, lung cancer cells A549, intestinal cancer cells Caco2, mouse glioma cells BV-2, human prostate cancer cells PC3, human thyroid cancer cell line BCPAP, human normal liver cell line L02, human normal gastric cell line GES, human umbilical vein epithelial cells HUVEC, and human embryonic lung fibroblasts WI-38 were cultured in a DMEM medium containing 10% fetal bovine serum and 1×HEPES in a humid incubator (37° C., 5% CO2). The cells were passaged with trypsin-EDTA in logarithmic phase. Certain density of cells (AGS, T47D, Caco2, BCPAP, GES, HUVEC 1×10^5 cells per well; HepG2, MDA-MB-231, BGC-823, A549, PC3, L02 8×10^4 cells per well; 143B, HOS, U2, SGC-7901, Hela, BV-2, 5×10^4 cells per well; WI-38, 3×10^5 cells per well) were inoculated in a 96-well plate, and cultured for 24 h before treatment. After replacing a fresh medium, 12.5 mg/L to 400 mg/L, of quercetin 3,3′-dimethyl ether dissolved with DMSO was added into a medium (a final volume ratio was 0.1%, and the DMSO was used as a […]). After incubation for 48 h, a complete medium was replaced with a serum-free medium containing 10% CCK-8 reagent. The absorbance at 450 nm and 620 nm was measured separately after the cells were incubated for 1 h. Each experiment was repeated three times independently.

[9] = test system: human embryonic lung fibroblasts WI-38; assay: as above; settings: 48 h, read-out: half-inhibitory concentration
Description: as §2

[10] = test system: human normal gastric cell line GES; assay: as above; settings: 48 h, read-out: half-inhibitory concentration
Description: as §2

[11] = test system: human umbilical vein epithelial cells HUVEC; assay: as above; settings: 48 h, read-out: half-inhibitory concentration
Description: as §2

[12] = Homo sapiens, versus control group, read-out: inhibition rate of scratch closure

## COc1cc(-c2oc3cc(O)cc(O)c3c(=O)c2OC)ccc1O [Quercetin 3,3′-dimethyl ether, quercetin 3,3′-dimethyl ether]
HepG2 cells
  intercellular space (scratch) versus control group: significantly higher
[1]
  Treatment scratch closed %: 37.42 ± 1.62 %
[1]; [12]
  inhibition at 2 µg/mL: 54%
[2]
  Treatment scratch closed %: 16.72 ± 3.87 %
[2]; [12]
  inhibition at 2 µg/mL: 82%
[3]
  Treatment scratch closed %: 24.76 ± 5.55 %
[3]; [12]
  inhibition at 6 µg/mL: 70.9%
Mouse glioma BV2; BV-2
  Treatment scratch closed %: 21.17 ± 8.55 %
Mouse glioma BV2; Mus musculus, BV2, versus control group, read-out: inhibition rate of scratch closure
  inhibition at 4 µg/mL: 75.2%
[4]
  inhibition at 5 µg/mL: 73.7%
Osteosarcoma cells U2
  Treatment scratch closed %: 27.67 ± 6.81 %
Osteosarcoma cells U2; versus control group, read-out: inhibition rate of scratch closure
  inhibition at 10 µg/mL: 70.5%
Lung cancer cell A549
  inhibition at 3 µg/mL: 69.6%
Breast cancer cells T47D
  Treatment scratch closed %: 31.83 ± 6.01 %
Breast cancer cells T47D; [12]
  inhibition at 3 µg/mL: 64.1%
[5]; 6 mg/L
  Treatment scratch closed %: 25.05 ± 10.1 %
[5]; Homo sapiens, SGC7901, 6 mg/L, versus control group, read-out: inhibition rate of scratch closure
  inhibition at 6 µg/mL: 72%
[6]; 4 mg/L
  Treatment scratch closed %: 28.37 ± 10.21 %
[6]; Homo sapiens, Caco-2, 4 mg/L, versus control group, read-out: inhibition rate of scratch closure
  inhibition at 4 µg/mL: 66.6%
[7]
  Treatment scratch closed %: 30.31 ± 5.21 %
[7]; [12]
  inhibition at 2 µg/mL: 64.7%
Osteosarcoma cells HOS
  inhibition at 4 µg/mL: 57.6%
[8]
  IC50: > 100 µg/mL
[9]
  IC50: > 100 µg/mL
[10]
  IC50: > 100 µg/mL
[11]
  IC50: > 100 µg/mL
